The NIST ThermoML archive (doi:10.1016/j.jct.2019.03.027)
“And” between values parts separate entries of the source, which are not always exact repeats. Equal entries are not always repeated.

Settings: Liquid, Closed cell (Static) method

O=C=O [carbon dioxide]
Settings	vapor or sublimation pressure
273.16 K	3485.7 kPa
273.17 K	3485.9 kPa
278.2 K	3977 kPa and 3975 kPa
283.15 K	4500.5 kPa and 4502 kPa
288.15 K	5090.5 kPa and 5087 kPa
293.14 K	5726.5 kPa and 5726.4 kPa
298.15 K	6436.1 kPa and 6430.1 kPa
303.15 K	7214.4 kPa
303.19 K	7212.8 kPa
303.64 K	7290.9 kPa
303.65 K	7297.4 kPa
303.85 K	7329 kPa and 7326.1 kPa
304.04 K	7360.5 kPa and 7358.8 kPa
